Reference: patent publication US5852213A, “Mercaptoketones and mercaptoalcohols and a process for their preparation” (American Cyanamid Company, priority 1997, dated 1998)

Experiments:
stromelysin = details: PCT application WO 9407481; cited from earlier work
[1] = biological target: T1, human recombinant fibroblast collagenase (Homo sapiens, UniProt P03956); experiment: Collagenase Inhibition in vitro; format: biochemical; details: read-out: Collagenase IC50 (nM) or % inhibition: % inhibition
T1 construct: human recombinant fibroblast collagenase (truncated, mw 18,828, WAR, Radnor)
T1 sequence (P03956 100-269 limits assumed): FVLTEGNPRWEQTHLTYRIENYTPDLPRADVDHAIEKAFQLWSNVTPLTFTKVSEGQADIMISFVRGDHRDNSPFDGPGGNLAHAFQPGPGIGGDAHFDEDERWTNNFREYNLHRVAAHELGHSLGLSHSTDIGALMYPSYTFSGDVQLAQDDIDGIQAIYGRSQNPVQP
Experimental: Collagenase Inhibition in vitro
The assay is based on the cleavage of a peptide substrate ((Dnp-Pro-Cha-Gly-Cys(Me)-His-Ala-Lys(NMa)-NH2), Peptide International, Inc.) by collagenase releasing the fluorescent NMa group which is quantitated on the fluorometer. Dnp quenches the NMa fluorescence in the intact substrate. […] Substrate is dissolved in methanol and stored frozen in 1 mM aliquots. […] For the assay, substrate is dissolved in HCBC buffer to a final concentration of 10 μM and collagenase to a final concentration of 5 nM. Compounds are dissolved in methanol, DMSO, or HCBC. The methanol and DMSO are diluted in HCBC to <1%. Compounds are added to the 96 well plate containing enzyme and the reaction is started by the addition of substrate.
The slope of the line is calculated and represents the reaction rate.
(§1) The linearity of the reaction rate is confirmed (r^2 >0.85). The mean of the control rate is calculated and compared for statistical significance (p<0.05) with drug-treated rates using Dunnett's multiple comparison test.

[2] = test system: human recombinant stromelysin; experiment: Stromelysin Inhibition in vitro; format: biochemical
Experimental: Stromelysin Inhibition in vitro.
The increase in OD405 is plotted and the slope of the line is calculated which represents the reaction rate.
as §1

Collangenase I = experiment: In vivo MMP Inhibition (enzyme in implanted dialysis tubing); parameters: species or system rat (Sprague-Dawley) or mouse (CD-1)
Experimental: A 2 cm piece of dialysis tubing (molecular weight cut-off 12-14,000, 10 mm flat width) containing matrix metalloproteinase enzyme (stromelysin, collagenase or gelatinase in 0.5 mL of buffer) is implanted either ip or sc (in the back) of a rat (Sprague-Dawley, 150-200 g) or mouse (CD-1, 25-50 g) under anesthesia. Drugs are administered PO, IP, SC or IV through a canula in the jugular vein. Drugs are administered in a dose volume of 0.1 to 0.25 mL/animal. Contents of the dialysis tubing is collected and enzyme activity assayed.
Enzyme reaction rates for each dialysis tube are calculated. Tubes from at least 3 different animals are used to calculate the mean±sem. Statistical significance (p<0.05) of vehicle-treated animals versus drug-treated animals is determined by analysis of variance. (Agents and Actions 21: 331, 1987)

MMP = details: EP 0322,184 A2; cited from earlier work

CC(C)C[C@H](NC(=O)[C@@H](CS)CCc1ccccc1)C(=O)Nc1ccccc1
inhibitor of the MMP stromelysin (stromelysin): moderate inhibitor

CCCCCCC[C@H](C[C@@H](O)CS)C(=O)N[C@H](C(=O)NC)C(C)(C)C [Example 37, (2R)-2-((2R)-2-Hydroxy-3-mercaptopropyl)nonanoic acid ((1S)-2,2-dimethyl-1-methylcarbamoylpropyl)amide]
inhibition at 1 µM [1]: 72%

CCCCCCC[C@H](C[C@H](O)CS)C(=O)N[C@H](C(=O)NC)C(C)(C)C [Example 38, (2R)-2-((2S)-2-Hydroxy-3-mercaptopropyl)nonanoic acid ((1S)-2,2-dimethyl-l-methylcarbamoylpropyl)amide]
Stromelysin IC50 (nM) or % inhibition: % inhibition ([2]; @ 0.1 μM): 96%
in vivo % Collangenase I inhibition (Collangenase I; 50 mpk (milligrams/kilogram)): 22.2%

CNC(=O)[C@@H](NC(=O)[C@H](CC(C)C)C[C@@H](O)CS)C(C)(C)C [Example 39, (2R,4R)-4-Hydroxy-2-isobutyl-5-mercaptopentanoic acid ((1S)-2,2-dimethyl-1-methylcarbamoylpropyl)amide]
Stromelysin IC50 (nM) or % inhibition: % inhibition ([2]; @ 300 nM): 6%
in vivo % Collangenase I inhibition (Collangenase I; 50 mpk (milligrams/kilogram)): 20.4%

CNC(=O)[C@@H](NC(=O)[C@H](CC(C)C)C[C@H](O)CS)C(C)(C)C [Example 40, (2R,4S)-4-Hydroxy-2-isobutyl-5-mercaptopentanoic acid ((1S)-2,2-dimethyl-1-methylcarbamoylpropyl)amide]
in vivo % Collangenase I inhibition (Collangenase I; 50 mpk (milligrams/kilogram)): 84.8%

CCCCCCC[C@H](CC(=O)CS)C(=O)N[C@H](C(=O)NC)C(C)(C)C [Example 43, (2R)-2-(3-Mercapto-2-oxopropyl)nonanoic acid ((1S)-2,2-dimethyl-1-methylcarbamoylpropyl)amide]
IC50 ([2]; read-out: Stromelysin IC50 (nM) or % inhibition: IC50): 28 nM
in vivo % Collangenase I inhibition (Collangenase I; 50 mpk (milligrams/kilogram)): 0.73%

CNC(=O)[C@@H](NC(=O)[C@@H](CC(=O)CS)CC(C)C)C(C)(C)C [Example 44, (2R)-2-Isobutyl-5-mercapto-4-oxopentanoic acid ((1S)-2,2-dimethyl-1-methylcarbamoylpropyl)amide]
Stromelysin IC50 (nM) or % inhibition: % inhibition ([2]; @ 1 μM): 58%
in vivo % Collangenase I inhibition (Collangenase I; 60 mpk (milligrams/kilogram)): 4.8%

CNC(=O)[C@H](Cc1ccc(OC)cc1)NC(=O)[C@H](CC(C)C)C(S)CC(C)=O (some centres unmarked) [compound where P is 2-oxopropyl]
times more potent than the compound where P is methyl (MMP): approximately 20 times

CNC(=O)[C@H](Cc1ccc(OC)cc1)NC(=O)[C@H](CC(C)C)C(C)S (some centres unmarked) [compound where P is methyl]
times more potent than the compound where P is hydrogen (MMP): approximately 20 times

(2R,4R)-4-Hydroxy-2-isobutyl-5-tritylsulfanylpentanoic acid ((1S)-2,2-dimethyl-1-methylcarbamoylpropyl)amide [Example 35]
in vivo % Collangenase I inhibition (Collangenase I; 50 mpk (milligrams/kilogram)): 0.44%
